Target: T1, acetylcholinesterase (AChE) (Homo sapiens, UniProt P22303)
T1 construct: derived from human erythrocytes (Sigma)
Experiment: Ellman spectrophotometric assay, acetylthiocholine hydrolysis at […] nm
Type: biochemical

T1 sequence (P22303 32-614): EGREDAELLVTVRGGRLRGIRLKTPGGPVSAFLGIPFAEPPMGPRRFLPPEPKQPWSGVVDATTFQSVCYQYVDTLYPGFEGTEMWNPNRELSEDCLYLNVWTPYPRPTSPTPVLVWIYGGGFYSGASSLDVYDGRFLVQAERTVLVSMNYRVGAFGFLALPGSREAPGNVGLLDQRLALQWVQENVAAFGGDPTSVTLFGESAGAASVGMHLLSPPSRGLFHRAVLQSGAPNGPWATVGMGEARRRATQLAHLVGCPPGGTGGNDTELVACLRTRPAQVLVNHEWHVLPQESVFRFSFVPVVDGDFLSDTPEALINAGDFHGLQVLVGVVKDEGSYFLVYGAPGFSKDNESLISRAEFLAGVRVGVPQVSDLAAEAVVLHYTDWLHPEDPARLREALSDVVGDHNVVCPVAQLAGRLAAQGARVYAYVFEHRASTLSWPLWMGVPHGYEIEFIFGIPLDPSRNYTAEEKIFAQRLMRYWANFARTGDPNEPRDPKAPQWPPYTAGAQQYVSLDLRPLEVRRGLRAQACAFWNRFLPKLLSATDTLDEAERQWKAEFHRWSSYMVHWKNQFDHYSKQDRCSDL

Row | Compound | IC50 [nM]
1 | CC(=O)O[C@@H]1C[C@@]23C[C@@]24CC[C@H](O[C@@H]2OC[C@H](O)[C@H](O)[C@H]2O)C(C)(C)[C@@H]4CC=C3[C@]2(C)C(=O)C(=O)[C@@]3(O[C@@H]([C@H](O)C(C)(C)O)C[C@H]3C)[C@@]12C [compound 1, (3β,12β,17S,20R,23R,24S)-17,23-Epoxy-15,16-dione-12-acetoxy-3,25-dihydroxy-7-en-9,19-cycloart-3-O-α-larabinopyranoside] | 1580
2 | Cc1cc(C=O)nc2c1[C@@]1(C)C[C@H](O)[C@@]34C[C@@]35CC[C@H](O[C@@H]3OC[C@H](O)[C@H](O)[C@H]3O)C(C)(C)[C@@H]5CC=C4[C@]1(C)C2 [compound 2, (3β,11β)-11-Hydroxy-16,23-nitrilo-7,17(20),22-trien-24-formyl-25,26,27-trinor-9,19-cycloart-3-O-α-larabinopyranoside] | 3870
